Experimental data as given in PubChem BioAssay AID2060484 (Molecular Pharmacology Branch, DTP, NCI, 2025).

Test system: SUM149PT spheroids with HUVEC/MSC, viability
Experiment: Anticancer human tumor SUM149PT cell line growth inhibition [GQUAD];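 note: spheroids exposed to drugs for seven days before readout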;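 for viability, T/C: percent viability relative to DMSO vehicle control taken as 100%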
Conditions: for IC50: curve of first compound; for viability, T/C: stronger effect = lower value
Summary of the method: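 Tumor cells were grown as complex spheroids with HUVEC endothelial cells and mesenchymal stem cells as stroma. G-quadruplex stabilizers were combined with targeted agents over half-log dilutions from near the clinical Cmax, or from 10 microM.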

[1] = second compound 0.0316 µM, first compound 0.0316 µM
[2] = second compound 0.0316 µM, first compound 0.1 µM
[3] = second compound 0.0316 µM, first compound 0.316 µM
[4] = second compound 0.0316 µM, first compound 1 µM
[5] = second compound 0.0316 µM, first compound 3.16 µM
[6] = second compound 0.0316 µM, first compound 10 µM
[7] = second compound 0.1 µM, first compound 0.0316 µM
[8] = second compound 0.1 µM, first compound 0.1 µM
[9] = second compound 0.1 µM, first compound 0.316 µM
[10] = second compound 0.1 µM, first compound 1 µM
[11] = second compound 0.1 µM, first compound 3.16 µM
[12] = second compound 0.1 µM, first compound 10 µM
[13] = second compound 0.316 µM, first compound 0.0316 µM
[14] = second compound 0.316 µM, first compound 0.1 µM
[15] = second compound 0.316 µM, first compound 0.316 µM
[16] = second compound 0.316 µM, first compound 1 µM
[17] = second compound 0.316 µM, first compound 3.16 µM
[18] = second compound 0.316 µM, first compound 10 µM
[19] = second compound 1 µM, first compound 0.0316 µM
[20] = second compound 1 µM, first compound 0.1 µM
[21] = second compound 1 µM, first compound 0.316 µM
[22] = second compound 1 µM, first compound 1 µM
[23] = second compound 1 µM, first compound 3.16 µM
[24] = second compound 1 µM, first compound 10 µM
[25] = second compound 3.16 µM, first compound 0.0316 µM
[26] = second compound 3.16 µM, first compound 0.1 µM
[27] = second compound 3.16 µM, first compound 0.316 µM
[28] = second compound 3.16 µM, first compound 1 µM
[29] = second compound 3.16 µM, first compound 3.16 µM
[30] = second compound 3.16 µM, first compound 10 µM
[31] = second compound 10 µM, first compound 0.0316 µM
[32] = second compound 10 µM, first compound 0.1 µM
[33] = second compound 10 µM, first compound 0.316 µM
[34] = second compound 10 µM, first compound 1 µM
[35] = second compound 10 µM, first compound 3.16 µM
[36] = second compound 10 µM, first compound 10 µM

O=C(NO)c1cnc(N2CCN(S(=O)(=O)c3ccc4ccccc4c3)CC2)nc1 + Cc1cnc(CNC(=O)c2c(=O)c3ccc(N4CCCN(C)CC4)nc3n3c2sc2ccccc23)cn1 was tested, and the IC50 (second compound 0.0316 µM) was 124 nM, the IC50 (second compound 0.1 µM) was 184 nM and the IC50 (second compound 0.316 µM) was 121 nM. The IC50 (second compound 1 µM) was < 31.6 nM, the IC50 (second compound 3.16 µM) was < 31.6 nM and the IC50 (second compound 10 µM) was < 31.6 nM. For the same compound, the viability, T/C [1] was 90.1%, the viability, T/C [2] was 47.7% and the viability, T/C [3] was 42.7%. For the same compound, the viability, T/C [4] was 0.16%, the viability, T/C [5] was 0.95% and the viability, T/C [6] was 3.31%. It also gave a viability, T/C [7] of 65.5%, a viability, T/C [8] of 52.9% and a viability, T/C [9] of 41.9%. The viability, T/C [10] was 0.15%, the viability, T/C [11] was 0.63% and the viability, T/C [12] was 2.26%. The viability, T/C [13] was 51.9%, the viability, T/C [14] was 54% and the viability, T/C [15] was 35.9%. It also gave a viability, T/C [16] of 2.48%, a viability, T/C [17] of 0.95% and a viability, T/C [18] of 0.63%. The viability, T/C [19] was 48.3%, the viability, T/C [20] was 45.7% and the viability, T/C [21] was 34%. For the same compound, the viability, T/C [22] was 1.85%, the viability, T/C [23] was 1.22% and the viability, T/C [24] was 0.11%. It also gave a viability, T/C [25] of 39%, a viability, T/C [26] of 37.8% and a viability, T/C [27] of 27.7%. It also gave a viability, T/C [28] of 0.11%, a viability, T/C [29] of 0.1% and a viability, T/C [30] of 0.32%. For the same compound, the viability, T/C [31] was 0.2%, the viability, T/C [32] was 2.04% and the viability, T/C [33] was 1.16%. It also gave a viability, T/C [34] of 0.97%, a viability, T/C [35] of 0.39% and a viability, T/C [36] of 2.62%.
In the case of CC(=O)O[C@H]1C(=O)[C@@]2(C)[C@H]([C@H](OC(=O)c3ccccc3)[C@]3(O)C[C@H](OC(=O)[C@H](O)[C@@H](NC(=O)c4ccccc4)c4ccccc4)C(C)=C1C3(C)C)[C@]1(OC(C)=O)CO[C@@H]1C[C@@H]2O + CN(C)c1ccc(Nc2c3ccc(NC(=O)CCN4CCCC4)cc3nc3cc(NC(=O)CCN4CCCC4)ccc23)cc1, the IC50 (second compound 0.0316 µM) is reported as < 31.6 nM, the IC50 (second compound 0.1 µM) is reported as < 31.6 nM and the IC50 (second compound 0.316 µM) is reported as < 31.6 nM. For the same compound, the IC50 (second compound 1 µM) was < 31.6 nM, the IC50 (second compound 3.16 µM) was < 31.6 nM and the IC50 (second compound 10 µM) was < 31.6 nM. The viability, T/C [1] was 31.9%, the viability, T/C [2] was 25.3% and the viability, T/C [3] was 23.8%. It also gave a viability, T/C [4] of 19.5%, a viability, T/C [5] of 19.8% and a viability, T/C [6] of 23.6%. It also gave a viability, T/C [7] of 32.8%, a viability, T/C [8] of 24.7% and a viability, T/C [9] of 21.6%. The viability, T/C [10] was 17.8%, the viability, T/C [11] was 19.6% and the viability, T/C [12] was 25.7%. The viability, T/C [13] was 30.6%, the viability, T/C [14] was 25.6% and the viability, T/C [15] was 22.8%. The viability, T/C [16] was 18.3%, the viability, T/C [17] was 17.2% and the viability, T/C [18] was 22.8%. For the same compound, the viability, T/C [19] was 29.6%, the viability, T/C [20] was 24.4% and the viability, T/C [21] was 16.5%. The viability, T/C [22] was 13.8%, the viability, T/C [23] was 17% and the viability, T/C [24] was 19.2%. For the same compound, the viability, T/C [25] was 27.7%, the viability, T/C [26] was 21.1% and the viability, T/C [27] was 17.5%. For the same compound, the viability, T/C [28] was 12.9%, the viability, T/C [29] was 15.7% and the viability, T/C [30] was 16.2%. For the same compound, the viability, T/C [31] was 26.8%, the viability, T/C [32] was 23.3% and the viability, T/C [33] was 15.8%. The viability, T/C [34] was 14.5%, the viability, T/C [35] was 15.7% and the viability, T/C [36] was 18.2%.
Compound O=C(NO)c1cnc(N2CCN(S(=O)(=O)c3ccc4ccccc4c3)CC2)nc1 + Cc1[nH]c2ccc(F)cc2c1-c1nc2c3cccnc3c3ncccc3c2[nH]1 has an IC50 (second compound 0.0316 µM) of 381 nM, an IC50 (second compound 0.1 µM) of 450 nM and an IC50 (second compound 0.316 µM) of 539 nM. It also gave an IC50 (second compound 1 µM) of 617 nM, an IC50 (second compound 3.16 µM) of 660 nM and an IC50 (second compound 10 µM) of 801 nM. The viability, T/C [1] was 100%, the viability, T/C [2] was 97.1% and the viability, T/C [3] was 59.4%. The viability, T/C [4] was 1.37%, the viability, T/C [5] was 0.22% and the viability, T/C [6] was 2.18%. For the same compound, the viability, T/C [7] was 102%, the viability, T/C [8] was 102% and the viability, T/C [9] was 67.8%. It also gave a viability, T/C [10] of 9.4%, a viability, T/C [11] of 0.18% and a viability, T/C [12] of 0.21%. The viability, T/C [13] was 104%, the viability, T/C [14] was 101% and the viability, T/C [15] was 78%. The viability, T/C [16] was 17.8%, the viability, T/C [17] was 0.15% and the viability, T/C [18] was 1.25%. The viability, T/C [19] was 105%, the viability, T/C [20] was 98.1% and the viability, T/C [21] was 78.8%. For the same compound, the viability, T/C [22] was 30.1%, the viability, T/C [23] was 0.16% and the viability, T/C [24] was 0.2%. The viability, T/C [25] was 107%, the viability, T/C [26] was 101% and the viability, T/C [27] was 74.2%. The viability, T/C [28] was 38.8%, the viability, T/C [29] was 0.2% and the viability, T/C [30] was 0.4%. It also gave a viability, T/C [31] of 106%, a viability, T/C [32] of 93.5% and a viability, T/C [33] of 79.4%. For the same compound, the viability, T/C [34] was 47.4%, the viability, T/C [35] was 0.29% and the viability, T/C [36] was 0.25%.
